Test results: PubChem BioAssay (NCI)
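Step 1: Grow cells in 96-well plates. Step 2: Expose to compound for 48 hours at 5 concentrations. Step 3: Interpolate endpoints linearly; if unreached, use highest concentration. At the TGI there is no net growth.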

What was measured:
Assay in all cases: NCI tumour cell line growth inhibition, 48 h
UACC-257 melanoma = system: UACC-257 melanoma
HT29 colon = system: HT29 colon
SN12C renal = system: SN12C renal
OVCAR-8 ovarian = system: OVCAR-8 ovarian
UACC-62 melanoma = system: UACC-62 melanoma
RPMI-8226 leukemia = system: RPMI-8226 leukemia
LOX IMVI melanoma = system: LOX IMVI melanoma
HOP-92 NSCLC = system: HOP-92 NSCLC
A549 NSCLC = system: A549 NSCLC
IGROV1 ovarian = system: IGROV1 ovarian
786-0 renal = system: 786-0 renal
CAKI-1 renal = system: CAKI-1 renal
NCI-H522 lung = system: NCI-H522 lung
MCF7 breast = system: MCF7 breast
PC-3 prostate = system: PC-3 prostate

| SMILES | TGI (UACC-257 melanoma) [µM] | TGI (HT29 colon) [µM] | TGI (SN12C renal) [µM] | TGI (OVCAR-8 ovarian) [µM] | TGI (UACC-62 melanoma) [µM] | TGI (RPMI-8226 leukemia) [µM] | TGI (LOX IMVI melanoma) [µM] | TGI (HOP-92 NSCLC) [µM] | TGI (A549 NSCLC) [µM] | TGI (IGROV1 ovarian) [µM] | TGI (786-0 renal) [µM] | TGI (CAKI-1 renal) [µM] | TGI (NCI-H522 lung) [µM] | TGI (MCF7 breast) [µM] | TGI (PC-3 prostate) [µM] |
| --- | --- | --- | --- | --- | --- | --- | --- | --- | --- | --- | --- | --- | --- | --- | --- |
| COC(=O)C1C2C=CC(C2)N1[C@@H](C)c1ccccc1 (some centres not stated) | > 100 | > 100 | > 100 | > 100 | > 100 | > 100 | > 100 | > 100 | > 100 | > 100 | > 100 | > 100 | > 100 |  |  |
| CN1CN(c2ccccc2)C2(CCN(CCc3csc4ccccc34)CC2)C1=O | 28.4 | 17.8 | 32.1 | 51.6 | 38 | 37.4 | 32.8 |  | 64.2 | 52.3 | 30.5 | 30.1 | 34.4 | 33.9 | 33.5 |
| CC[C@H]1OC([C@H](O)C/C=C\C#C[Si](C)(C)C)C/C=C\C[C@H]1O[Si](C)(C)C(C)(C)C (some centres not stated) |  | > 100 | > 100 | > 100 | > 100 | > 100 | 36.3 |  | > 100 | > 100 | > 100 | > 100 | > 100 | > 100 | > 100 |
| CCCCOC(=O)C(O)Cc1ccoc1 (configuration not stated) |  | > 100 | > 100 | > 100 | > 100 | > 100 | > 100 |  | > 100 | > 100 | > 100 |  | > 100 | > 100 | > 100 |
| N/C(=N/n1c(=S)[nH]c2ccccc2c1=O)Nn1c(=S)[nH]c2ccccc2c1=O | > 100 |  |  | > 100 | > 100 | 57.5 | 46 |  | > 100 | > 100 | 34.2 | 26.3 | 30 | > 100 | > 100 |
| CC(=O)NC1=C(C)C(=O)c2c(nc3n2CCC3O)C1=N (configuration not stated) | 13.2 | 33.5 | 19 | 16.7 | 15.5 | > 100 | 19.2 | 15.3 | > 100 | 39.3 | 40.4 | 27.7 | 19.6 |  |  |
| CC1(C)CC(=O)c2c(nc3ccc4ccccc4c3c2-c2ccc(NC(=O)CCC(=O)Nc3ccc(-c4c5c(nc6ccc7ccccc7c46)CC(C)(C)CC5=O)cc3)cc2)C1 | > 100 | > 100 | > 100 | > 100 |  | > 100 | > 100 |  | > 100 | > 100 | > 100 | > 100 | > 100 | > 100 | > 100 |
| CCC(CC)n1c(C)nc2c1C(=O)c1ccccc1C2=O | 72.7 | > 100 | > 100 | > 100 | 36.2 |  | 54.7 | > 100 | > 100 | > 100 | > 100 |  | > 100 |  |  |
| CC(=O)OC1c2ccccc2CCCCCCC12OCCO2 (configuration not stated) | > 100 | > 100 | > 100 | > 100 | > 100 | > 100 | > 100 |  | > 100 | > 100 | > 100 | > 100 | > 100 |  |  |
| COc1ccc(C(C#N)NNc2nc(C)cc(=O)[nH]2)cc1OC (configuration not stated) | > 100 | > 100 | > 100 | > 100 | > 100 | > 100 | > 100 | > 100 | > 100 | > 100 | > 100 | > 100 | > 100 |  |  |
| O=c1[nH]nc(Cc2ccccc2)n1Nc1ccccc1 | > 100 | > 100 | > 100 | > 100 | > 100 | > 100 | > 100 |  | > 100 | > 100 | > 100 | > 100 | > 100 | > 100 | > 100 |
| CNC(=O)c1[nH]cnc1/N=N/N(C)N | > 100 | > 100 | > 100 | > 100 | > 100 | > 100 | > 100 |  | > 100 | > 100 | > 100 | > 100 | > 100 |  | > 100 |
| COc1cc2c(c(OC)c1OC)-c1ccc(SC)cc1[C@H](OC(=O)c1ccccc1)CC2 | > 100 |  | > 78.2 | > 100 | > 100 |  | > 100 | > 100 |  | > 100 | > 100 | > 100 |  | > 33.2 |  |
| CC1C[C@]2(C)C(=O)N(c3ccccc3)C(=N)[C@@H]2N(C)c2ccccc21 (some centres not stated) | > 100 | > 100 | > 100 | > 100 | > 100 | > 100 | > 100 |  | > 100 | > 100 | > 100 | > 100 | > 100 | > 100 | > 100 |
| S=C1N=C(Cl)C2(NN1)c1ccccc1-c1ccccc12 | > 10 |  | > 10 | > 10 | > 10 | > 10 | > 10 | > 10 | > 10 | > 10 | > 10 | > 10 |  | > 10 |  |
| CC(C)C1CC(O)O[C@@H]([C@@H](C)[C@H]2CC(=O)[C@@H]3[C@@H]4[C@@H](O)[C@H](O)[C@H]5[C@@H](O)[C@H](O)CC[C@]5(C)[C@H]4CC[C@]23C)C1 (some centres not stated) | > 100 | > 100 | > 100 | > 100 | > 100 |  | > 100 | 57.1 | > 100 | > 100 | > 100 |  | > 100 |  |  |
| CCOc1cc(NC(C)=O)ccc1C(=O)NN1C(=O)/C(=C/c2cc(OC)c(OC)c(OC)c2)N=C1c1ccccc1 | > 100 | > 100 | > 100 | > 100 | > 100 |  | > 100 | > 100 | > 100 | > 100 | > 100 | > 100 | > 100 | > 100 |  |
| O=C(CC(C(=O)c1ccoc1)c1ccco1)c1ccco1 (configuration not stated) | > 100 | > 100 | > 100 | > 100 | > 100 | > 100 | > 100 | > 100 | > 100 | > 100 | > 100 | > 100 | > 100 | > 100 |  |
